These results are taken from PubChem BioAssay (NCI).

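Each compound was tested at five concentrations against cells in 96-well plates for 48 hours. Abbreviation: GI50, concentration required for 50% inhibition of growth. At the TGI there is no net growth.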 A value given as a limit tells only on which side of the number the result lay.

Test systems include EKVX NSCLC; LOX IMVI melanoma; DLD-1 colon; HOP-92 NSCLC; NCI/ADR-RES ovarian; T-47D breast; BT-549 breast; DU-145 prostate; MDA-MB-435; CAKI-1 renal.
Experiment in all cases: NCI tumour cell line growth inhibition, 48 h

`COc1cc(Cc2ccc3c(c2C#N)N(C)c2ccccc2S3)cc(OC)c1OC`: the TGI in the assay on EKVX NSCLC, in the assay with LOX IMVI melanoma, with DLD-1 colon and with HOP-92 NSCLC was more than 100 µM each time.

With `O=c1oc2c(ccc3c(O)cccc32)c2c1CCCC2`, the TGI with EKVX NSCLC is more than 100 µM; in the assay with NCI/ADR-RES ovarian it was more than 100 µM; in the assay on LOX IMVI melanoma, more than 100 µM; in the assay with T-47D breast, more than 100 µM; with BT-549 breast it was 73.6 µM; in the assay on DU-145 prostate it was more than 100 µM. Moreover, the TGI is more than 100 µM in the assay with MDA-MB-435, more than 100 µM with CAKI-1 renal and 50.1 µM in the assay on HOP-92 NSCLC.

Take `COc1cc(C2S/C(=C/c3ccccc3)C(=O)N2c2ccccc2Cl)cc(OC)c1OC` (centres undefined): the TGI is 50.8 µM in the assay with EKVX NSCLC; 94.7 µM with NCI/ADR-RES ovarian; 44.9 µM in the assay on LOX IMVI melanoma; 32.1 µM with T-47D breast; more than 100 µM in the assay on BT-549 breast; 56.7 µM with MDA-MB-435. The TGI with CAKI-1 renal and with HOP-92 NSCLC was more than 100 µM each time.

On to `COc1cc2nc(N3CCC[C@@H](NC4=CC(=O)c5ccccc5C4=O)C3)nc(N)c2cc1OC`, for which the GI50 was 1.95 µM in the assay on T-47D breast; 2.1 µM in the assay on BT-549 breast; 2.03 µM with DU-145 prostate; 2 µM in the assay on MDA-MB-435; 2.02 µM in the assay with CAKI-1 renal. Further, the TGI in the assay with T-47D breast worked out at 3.74 µM; in the assay on BT-549 breast, 4.66 µM; with DU-145 prostate, 3.78 µM; with MDA-MB-435, 4.14 µM; in the assay with CAKI-1 renal, 4.12 µM.

For the compound `CCOC(=O)/C(=N/Nc1ccc(Cl)cc1)N1C(=S)C=C(C)NN(C)C1=S`, the TGI in the assay on EKVX NSCLC was 73 µM; with NCI/ADR-RES ovarian, more than 100 µM; with T-47D breast, 98.3 µM; in the assay with DU-145 prostate it was more than 100 µM; with MDA-MB-435 it was more than 100 µM; in the assay on CAKI-1 renal, more than 100 µM. In the assay on HOP-92 NSCLC, this compound displayed a TGI of more than 100 µM.

Regarding `Cc1nc(N(CCO)CCO)c2sc(=S)n(-c3ccccc3)c2n1`, the TGI in the assay with DLD-1 colon and with HOP-92 NSCLC was more than 100 µM in each case.

For `Cc1ccc(S(=O)(=O)Nc2cc(Sc3ccccc3)c(O)c3ccccc23)cc1`, the GI50 in the assay on EKVX NSCLC was 12.3 µM; in the assay with NCI/ADR-RES ovarian, 3 µM; in the assay on LOX IMVI melanoma, 2.34 µM; with T-47D breast, 2.25 µM; in the assay with BT-549 breast, 11.9 µM; with DU-145 prostate, 3.83 µM. For the same compound, the GI50 in the assay on MDA-MB-435 is 1.8 µM; with CAKI-1 renal, 3.16 µM; in the assay with HOP-92 NSCLC, 2.02 µM. Besides, the TGI in the assay with EKVX NSCLC turned out to be 25.3 µM; in the assay on NCI/ADR-RES ovarian, 9.31 µM; in the assay on LOX IMVI melanoma it was 7.96 µM; with T-47D breast it was 5.99 µM; in the assay with BT-549 breast, 24.2 µM; in the assay on DU-145 prostate it was 13.6 µM. The TGI stood at 3.26 µM in the assay with MDA-MB-435, 9.19 µM in the assay on CAKI-1 renal and 4.57 µM in the assay with HOP-92 NSCLC.

As for `C/C(=N\NC(=S)Nc1ccc(Cl)cc1)c1nc2ncccc2[nH]1`, the TGI turned out to be 13.1 µM with EKVX NSCLC; 53.4 µM with NCI/ADR-RES ovarian; 13.1 µM in the assay with LOX IMVI melanoma; 20.9 µM with T-47D breast; 11.1 µM in the assay with BT-549 breast; 14.1 µM in the assay with DU-145 prostate. The TGI amounted to 15.1 µM in the assay on MDA-MB-435, 33.2 µM in the assay on CAKI-1 renal and 5.75 µM with HOP-92 NSCLC.

Turning to `BrC1=CN2C[n+]3cc(Br)c4ccccc4c3N=C2c2ccccc21`, the TGI in the assay on NCI/ADR-RES ovarian was more than 100 µM; in the assay with LOX IMVI melanoma, 34.2 µM; in the assay with T-47D breast it was 18.8 µM; with BT-549 breast it was 37.2 µM; in the assay on DU-145 prostate, 33.3 µM; in the assay on MDA-MB-435 it was 19.2 µM. Also, the TGI with CAKI-1 renal is 48.1 µM; in the assay on HOP-92 NSCLC, 29.6 µM.

As for `COC(=O)C1=C(O)C(C(=O)OC)[C@@]2(O)[C@@H](C(=O)OC)CC[C@@H]1[C@@H]2C(=O)OC` (some centres undefined), the TGI in the assay on EKVX NSCLC was 85.7 µM; in the assay on LOX IMVI melanoma it was 76.8 µM; with T-47D breast, more than 100 µM; with BT-549 breast, more than 100 µM; in the assay on DU-145 prostate, more than 100 µM; with MDA-MB-435, more than 100 µM.

`CN(CCO)/N=N/c1nc[nH]c1C(N)=O`: the TGI in the assay with EKVX NSCLC, with LOX IMVI melanoma, in the assay with DLD-1 colon and in the assay with HOP-92 NSCLC was more than 100 µM throughout.

As for `O=C(O)CN=c1c2ccccc2n(O)c2ccccc12`, the TGI in the assay on EKVX NSCLC, in the assay on LOX IMVI melanoma, with DLD-1 colon and in the assay with CAKI-1 renal was more than 100 µM in each case.

As to `CCOC(=O)C(=O)Nc1cccc(C)c1C`, the TGI in the assay on EKVX NSCLC, in the assay on DLD-1 colon, in the assay with CAKI-1 renal and with HOP-92 NSCLC was more than 100 µM throughout.

With `C/C([O-])=C(/c1nc(-c2ccc([N+](=O)[O-])o2)no1)[n+]1cc(C)ccc1C`, the TGI was more than 100 µM with EKVX NSCLC; more than 100 µM with NCI/ADR-RES ovarian; 21.8 µM in the assay on LOX IMVI melanoma; 24.7 µM in the assay with DLD-1 colon; 28.7 µM in the assay with CAKI-1 renal; more than 100 µM in the assay on HOP-92 NSCLC.
